Reference: patent publication US20230015647A1, “INHIBITORS OF HISTONE DEMETHYLASES (PFI-63 AND PFI-90) FOR THE TREATMENT OF CANCER AND FOR THE INHIBITION OF HISTONE DEMETHYLASE IN CELLS” (The United States of America,as represented by the …, priority 2019, published 2023)
pIC50: −log10 of the molar value. “Also recorded” adds a separate entry of the source.

What was measured:
KDM3B (JMJD1B) = biological target: T1, KDM3B (JMJD1B) (Homo sapiens, UniProt Q7LBC6); assay: Eurofins histone lysine demethylase panel, enzymatic inhibition, substrate H3K9me1/2(3); assay type: biochemical; settings: KDM3B (JMJD1B) enzymatic activity
T1 construct: The enzymatic activity of each of the full length protein was analyzed using known substrates; purchased Eurofins
T1 sequence (Q7LBC6 whole entry): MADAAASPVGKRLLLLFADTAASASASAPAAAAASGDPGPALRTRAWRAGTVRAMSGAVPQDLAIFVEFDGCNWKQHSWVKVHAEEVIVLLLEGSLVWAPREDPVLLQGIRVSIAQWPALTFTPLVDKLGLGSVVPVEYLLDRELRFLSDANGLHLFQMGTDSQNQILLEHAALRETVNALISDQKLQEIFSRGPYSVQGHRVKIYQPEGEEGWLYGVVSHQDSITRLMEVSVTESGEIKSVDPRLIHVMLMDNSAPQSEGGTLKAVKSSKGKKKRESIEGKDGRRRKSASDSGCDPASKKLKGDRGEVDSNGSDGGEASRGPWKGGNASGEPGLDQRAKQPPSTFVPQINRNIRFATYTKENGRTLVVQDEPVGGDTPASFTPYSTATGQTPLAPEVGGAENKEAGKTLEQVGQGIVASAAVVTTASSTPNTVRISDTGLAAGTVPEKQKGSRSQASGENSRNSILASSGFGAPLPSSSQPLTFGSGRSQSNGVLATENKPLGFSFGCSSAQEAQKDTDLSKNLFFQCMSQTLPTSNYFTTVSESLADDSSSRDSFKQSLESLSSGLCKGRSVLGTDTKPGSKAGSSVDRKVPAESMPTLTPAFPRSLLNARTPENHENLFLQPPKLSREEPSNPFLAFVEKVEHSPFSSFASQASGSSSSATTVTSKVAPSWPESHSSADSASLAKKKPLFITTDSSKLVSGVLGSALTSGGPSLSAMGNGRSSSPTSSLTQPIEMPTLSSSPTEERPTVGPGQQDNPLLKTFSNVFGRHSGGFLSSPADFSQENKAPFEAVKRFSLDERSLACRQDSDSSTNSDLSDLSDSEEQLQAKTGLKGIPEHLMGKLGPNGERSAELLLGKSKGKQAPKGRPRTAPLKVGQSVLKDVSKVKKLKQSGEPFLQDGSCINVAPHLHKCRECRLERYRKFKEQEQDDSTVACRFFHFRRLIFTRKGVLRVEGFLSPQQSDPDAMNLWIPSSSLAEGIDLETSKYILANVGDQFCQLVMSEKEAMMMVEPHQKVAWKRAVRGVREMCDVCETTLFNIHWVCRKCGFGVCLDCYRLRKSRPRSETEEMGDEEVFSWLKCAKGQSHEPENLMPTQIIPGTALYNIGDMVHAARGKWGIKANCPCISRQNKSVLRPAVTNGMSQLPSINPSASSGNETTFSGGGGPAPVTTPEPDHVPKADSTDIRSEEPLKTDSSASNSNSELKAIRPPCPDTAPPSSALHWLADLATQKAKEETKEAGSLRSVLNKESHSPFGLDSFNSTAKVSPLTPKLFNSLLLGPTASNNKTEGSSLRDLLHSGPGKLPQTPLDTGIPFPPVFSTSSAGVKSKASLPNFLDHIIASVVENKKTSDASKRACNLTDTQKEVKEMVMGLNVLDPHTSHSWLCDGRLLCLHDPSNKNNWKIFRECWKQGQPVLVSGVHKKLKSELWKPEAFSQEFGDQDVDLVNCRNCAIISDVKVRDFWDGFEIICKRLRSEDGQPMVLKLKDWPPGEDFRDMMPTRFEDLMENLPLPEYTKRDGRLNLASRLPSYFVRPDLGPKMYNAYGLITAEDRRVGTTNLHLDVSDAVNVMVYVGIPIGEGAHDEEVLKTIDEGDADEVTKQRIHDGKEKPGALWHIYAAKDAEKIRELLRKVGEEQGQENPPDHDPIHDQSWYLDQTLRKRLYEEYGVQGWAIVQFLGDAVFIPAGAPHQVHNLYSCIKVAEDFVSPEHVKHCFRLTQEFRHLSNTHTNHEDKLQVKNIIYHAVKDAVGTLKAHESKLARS
Method: PFI-63 was sent to Eurofins (www.eurofins.com) for direct enzymatic inhibition activity analysis. The enzymatic activity of each of the full length protein was analyzed using known substrates such as methylated lysines. The proteins were treated with various concentrations of PFI-63. As described above, PFI-90 inhibitory activity was determined by Eurofins using enzymatic inhibition activity analysis of a panel of histone demethylases.

RH30.19luc cells = assay: CRISPR/Cas9 genome-scale loss of function time course screen (GeCKOv2, TKOv3); assay type: cell-based; settings: compared to DMSO
Method: To identify specific proteins targeted by PFI-63, a genome-scale loss of function time course screen was performed in RH30.19luc cells using two CRISPR/Cas9 libraries (GeCKOv2 and TKOv3) with and without treatment with PFI-63.

rhabdomyosarcoma cells = assay: Morphological imaging of treated cells; assay type: cell-based
Text: Among the 64 compounds identified above, 33 compounds of unknown mechanism of action were identified.

[1] = system: truncated KDM3B catalytic domain; assay: WaterLOGSY NMR binding assay; settings: 300 μM; in the presence and in the absence of 2-OG
Text: (§1) A WaterLOGSY assay and a Carr-Purcell Meiboom-Gill (CPMG) based assay were used to investigate protein-ligand binding affinity between PFI-90 and a truncated KDM3B catalytic domain.
In traditional proton NMR experiments, a series of peaks are generated that represent the structure of a solitary small molecule, whereas the WaterLOGSY experiment examines the behavior of a small molecule's peaks in the presence of a potential target. This is achieved by observing differences in interaction between a small molecule interacting with water co-occupying a binding cleft on a target as compared to water dispersed freely in solution. The experiment then depicts the ratio of bound to unbound small molecule by phasing proton NMR spectra on the X-axis in opposing directions depending on the magnitude of that ratio (i.e., increasing ratios above 1 will phase positively, decreasing ratios below 1 will phase negatively).

[2] = system: truncated KDM3B catalytic domain; assay: CPMG relaxation editing NMR binding assay
Text: as §1
CPMG (Carr-Purcell-Meiboom-Gill) Relaxation Editing Proton NMR is another drug-discovery NMR experiment that may be used in conjunction with WaterLOGSY to orthogonally validate the presence of a reversible binding interaction of mild to high affinity from a small molecule to a label-free target. In contrast to WaterLOGSY, all peaks are phased above the X-axis. Instead, this experiment filters out the proportion of peak height that is contributed from the quantity of small molecule bound to a target of high molecular weight (e.g., a protein). Once the attenuation of peak height is equivalent to a 20% reduction, the compound is said to bind, with an increasing ratio of bound to unbound small molecules manifesting in increasing signal attenuation.

[3] = system: truncated KDM3B catalytic domain; assay: 1D 1H NMR chemical shift perturbation; assay type: binding; settings: 300 uM PFI-90, 12 uM protein, with or without 100 uM 2-OG
Text: For reference, FIG. 63 depicts NMR peaks for PFI-90. While the peaks are complex, all relevant peaks are clearly resolved. FIG. 64 depicts NMR peaks obtained for […] (also called 2-oxoglutaric acid or “2-OG”), a substrate of histone demethylases. 2-OG peaks are easily resolved. FIG. 65 depicts results from a 1D 1H analysis of PFI-90.

| SMILES | pIC50 (KDM3B (JMJD1B)) | synthetic lethality of targets of histone lysine demethylases (RH30.19luc cells) | cell morphology (rhabdomyosarcoma cells) | binding (WaterLOGSY) [1] | peak height attenuation (CPMG) ([2]; 1 of 9 peaks) [%] | peak height attenuation (CPMG) ([2]; 3 of 9 peaks) [%] | peak height attenuation (CPMG) ([2]; 5 out of 9 PFI-90 peaks) | binding (CPMG) ([2]; in the presence and absence of 2-OG) | chemical shift perturbation upon addition of truncated KDM3B catalytic domain [3] |
| --- | --- | --- | --- | --- | --- | --- | --- | --- | --- |
| Cc1cc(C)cc(C(=O)NNC(=O)c2ccccn2)c1 [PFI-63] | 5.52 to 5.70 | synthetically lethal | elongation of cells | – | – | – | – | – | – |
| O=C(NNc1ccccn1)c1ccccn1 [PFI-90] | – | – | – | found to bind; also recorded: binds | 70 | 50 | Complete/near complete | Strong binding | not influences by 2-OG presence; also recorded: not influenced by the presence of 2-OG |
